According to article PMC5750651, “Disposition, Metabolism and Histone Deacetylase and Acetyltransferase Inhibition Activity of Tetrahydrocurcumin and Other Curcuminoids” (Pharmaceutics, 2017):
Where two headings read alike, the source gives them in different places.

How the values were obtained:
CYP1A2 = target: T1, CYP1A2 (Homo sapiens, UniProt P05177); experiment: Vivid CYP450 screening kit, CYP1A2; conditions: 0.01-100 μM
T1 sequence (P05177 1-516): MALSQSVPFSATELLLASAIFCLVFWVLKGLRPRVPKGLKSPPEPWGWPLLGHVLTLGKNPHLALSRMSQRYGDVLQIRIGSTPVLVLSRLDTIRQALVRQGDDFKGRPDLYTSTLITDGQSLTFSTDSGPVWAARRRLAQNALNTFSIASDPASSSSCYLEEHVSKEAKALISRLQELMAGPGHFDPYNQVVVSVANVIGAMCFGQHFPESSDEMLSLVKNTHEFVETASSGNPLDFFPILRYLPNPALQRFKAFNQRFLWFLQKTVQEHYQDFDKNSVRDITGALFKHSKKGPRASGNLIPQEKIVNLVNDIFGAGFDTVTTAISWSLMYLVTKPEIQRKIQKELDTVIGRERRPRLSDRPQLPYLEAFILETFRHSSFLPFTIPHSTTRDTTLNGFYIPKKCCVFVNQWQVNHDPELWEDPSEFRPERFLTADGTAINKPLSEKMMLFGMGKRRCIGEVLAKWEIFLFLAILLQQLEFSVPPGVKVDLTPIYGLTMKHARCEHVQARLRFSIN
Protocol: (§1) CYP2C9, CYP3A4, CYP1A2 and CYP2D6 assays were performed to assess metabolism and inhibition of human P450 isozymes involved using Vivid® CYP450 screening kits and CYP450 BACULOSOMES® Plus Reagents. CYP450 BACULOSOMES® Plus Reagents express only one CYP450 enzyme, preventing metabolism by other CYP450s. For CYP2C9, the substrate was BOMF and the positive control inhibitor sulfaphenazole; for CYP3A4, DBOMF was the substrate and ketoconazole the positive control inhibitor; for CYP1A2, the substrate was EOMCC and the positive control inhibitor naphthoflavone; for CYP2D6, the substrate was EOMCC and the positive control inhibitor quinidine. The assays were performed using the excitation and emission wavelengths recommended by the manufacturer. […] The plate was incubated for 10 min at room temperature (25 ± 1 °C) on a plate shaker. Then, 10 μL of Vivid® Substrate was added to each well to start the reaction. […] The assay was done in triplicate. The reading was performed at 1 min intervals for 60 min. Inhibition was calculated as (1 − (X − B/A − B)) × 100%, where X was the average of compound fluorescence, A was the average of solvent control and B was the average of inhibition in the presence of positive inhibitor control. The percent inhibition was calculated relative to a fixed concentration of the positive control. […]

COX-2 = target: T2, COX-2 (Homo sapiens, UniProt P35354); experiment: COX inhibitor screening assay kit, COX-2; format: biochemical; conditions: for COX-2/COX-1 IC50 ratio: COX-2 IC50 divided by COX-1 IC50
T2 construct: purchased Cayman Chemical 560131
T2 sequence (P35354 18-604): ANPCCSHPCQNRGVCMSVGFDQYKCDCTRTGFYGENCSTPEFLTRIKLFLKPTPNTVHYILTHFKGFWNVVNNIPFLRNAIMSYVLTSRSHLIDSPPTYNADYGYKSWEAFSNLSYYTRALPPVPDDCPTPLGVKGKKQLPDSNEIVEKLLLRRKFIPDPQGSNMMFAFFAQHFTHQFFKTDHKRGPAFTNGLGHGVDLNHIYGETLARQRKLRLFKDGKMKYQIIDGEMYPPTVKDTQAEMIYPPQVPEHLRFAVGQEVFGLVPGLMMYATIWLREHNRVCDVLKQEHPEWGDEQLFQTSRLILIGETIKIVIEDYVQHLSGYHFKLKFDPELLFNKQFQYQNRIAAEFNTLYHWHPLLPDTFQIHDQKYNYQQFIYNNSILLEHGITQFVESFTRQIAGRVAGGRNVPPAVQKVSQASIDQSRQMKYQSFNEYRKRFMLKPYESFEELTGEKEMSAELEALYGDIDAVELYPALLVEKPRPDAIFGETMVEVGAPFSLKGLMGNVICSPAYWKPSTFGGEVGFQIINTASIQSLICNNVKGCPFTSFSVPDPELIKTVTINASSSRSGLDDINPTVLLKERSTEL

[1] = system: TNF-α release in Sup-T1 cells; experiment: Cellular inflammatory cytokine release assay (TNF-α ELISA); format: cell-based, human; conditions: Sup-T1 cells, 5, 10, 50 and 100 μM, versus no-treatment control
Protocol: Cell culture supernatant was collected and used to determine released TNF-α using the Human TNF-alpha DuoSet ELISA kit (DY210, R & D systems, Minneapolis, MN, USA) following the standard manufacturer’s protocol, optimized using recombinant TNF-α. […] The data were analyzed using SigmaPlot 12.2 (Systat Software Inc., San Jose, CA, USA).

PCAF = target: T3, PCAF (Homo sapiens, UniProt Q92831); experiment: PCAF inhibitor screening assay kit (fluorescence); format: biochemical
T3 construct: purchased Cayman 10006515
T3 sequence (Q92831 492-658 limits assumed): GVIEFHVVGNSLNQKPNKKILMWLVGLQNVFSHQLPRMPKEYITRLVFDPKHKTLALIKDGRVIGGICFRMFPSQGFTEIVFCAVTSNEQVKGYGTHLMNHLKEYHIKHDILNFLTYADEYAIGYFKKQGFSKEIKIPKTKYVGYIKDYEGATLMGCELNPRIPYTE
Protocol: Curcuminoids were tested for direct HDAC1 and PCAF inhibitory activity using the fluorescent-based HDAC1 or PCAF inhibitor screening assay kit ((HDAC1) 10011564, (PCAF) 10006515, Cayman, Ann Arbor, MI, USA) according to manufacturer’s instructions.
(§2) Data for the PCAF and HDAC1 inhibition and viability assays were used to derive percent changes based on no treatment controls. Each of three data sets were then fit to a 4-parameter logistic regression using SigmaPlot 12.2 to derive IC50 values, which were then used to determine the mean and SD.

CYP3A4 = CYP3A4 (Homo sapiens, UniProt P08684); experiment: Vivid CYP450 screening kit, CYP3A4; conditions: 0.01-100 μM, relative to ketoconazole; to a lesser extent than CYP2C9
Chain of CYP3A4 (P08684 whole entry): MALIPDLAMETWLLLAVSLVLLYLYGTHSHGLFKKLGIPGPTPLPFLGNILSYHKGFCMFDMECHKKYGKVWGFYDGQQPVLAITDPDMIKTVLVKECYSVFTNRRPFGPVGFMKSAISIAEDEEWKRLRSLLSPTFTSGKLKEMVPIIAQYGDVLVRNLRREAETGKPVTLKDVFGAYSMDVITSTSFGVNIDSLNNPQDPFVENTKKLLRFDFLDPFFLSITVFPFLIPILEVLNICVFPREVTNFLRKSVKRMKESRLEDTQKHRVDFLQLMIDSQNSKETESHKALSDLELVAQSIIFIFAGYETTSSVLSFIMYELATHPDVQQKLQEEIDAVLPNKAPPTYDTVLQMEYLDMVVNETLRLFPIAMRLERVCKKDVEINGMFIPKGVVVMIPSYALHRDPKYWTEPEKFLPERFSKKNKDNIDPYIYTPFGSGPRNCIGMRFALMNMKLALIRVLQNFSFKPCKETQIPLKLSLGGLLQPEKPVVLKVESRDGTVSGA
Protocol: as §1

CYP2C9 = target: T4, CYP2C9 (Homo sapiens, UniProt P11712); experiment: Vivid CYP450 screening kit, CYP2C9; format: in vitro ADME; conditions: 0.01-100 μM, relative to sulfaphenazole
T4 construct: purchased Life Technologies P2860
T4 sequence (P11712 whole entry): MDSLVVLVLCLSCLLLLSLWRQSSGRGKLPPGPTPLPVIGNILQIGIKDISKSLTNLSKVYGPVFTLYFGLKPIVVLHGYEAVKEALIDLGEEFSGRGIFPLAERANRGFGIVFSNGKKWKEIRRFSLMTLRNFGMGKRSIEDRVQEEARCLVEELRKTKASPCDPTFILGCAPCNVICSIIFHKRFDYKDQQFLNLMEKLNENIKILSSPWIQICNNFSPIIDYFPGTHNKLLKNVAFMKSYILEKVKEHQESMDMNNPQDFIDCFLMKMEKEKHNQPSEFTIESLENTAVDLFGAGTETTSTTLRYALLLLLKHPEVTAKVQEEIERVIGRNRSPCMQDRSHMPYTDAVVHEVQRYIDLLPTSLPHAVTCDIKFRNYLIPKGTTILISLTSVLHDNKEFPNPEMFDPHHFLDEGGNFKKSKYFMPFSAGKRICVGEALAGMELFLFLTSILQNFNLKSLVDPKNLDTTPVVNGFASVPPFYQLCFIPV

Sup-T1 cells = experiment: Cellular growth inhibition assay (MTS); format: cell-based; conditions: for IC50: Homo sapiens
Protocol: The CellTiter 96® AQueous One Solution Cell Proliferation Assay (MTS, Promega, Madison, WI, USA) was used to measure proliferation inhibition of cultured cells. Briefly, Sup-T1 cells were cultured in RPMI 1640 supplemented with 10% FBS and 1% penicillin/streptomycin at 37 °C and 5% CO2. […] The MTS reagent was added and incubated for 4 h. […] Sup-T1 cells were used in this study because curcuminoids are thought in part to work via an HDAC inhibitor mechanism and as some HDACs are approved for some T-cell lymphomas, we used Sup-T1 cells because they are a T-cell lymphoma cell line that is established. To the best of our knowledge no other study has measured the effects of THC on Sup-T1 cells.
as §2

`COc1cc(CCC(=O)CC(=O)CCc2ccc(O)c(OC)c2)ccc1O` [THC, tetrahydrocurcumin] was tested, and the “CYP1A2 inhibition (in words)” value (CYP1A2) was “did not show a consistent dose-response inhibition”, the IC50 (COX-2) was 1350 ± 3640 µM and the “COX-2/COX-1 IC50 ratio” value (COX-2) was “around 1”. For the same compound, the “change in TNF-α concentration (in words)” value [1] was “no dose-response change”, the “PCAF inhibition (in words)” value (PCAF; 0.1-250 μg/mL) was “no inhibitory activity” and the “CYP3A4 inhibition (in words)” value (CYP3A4) was “dose-dependent inhibition”. For the same compound, the “CYP2C9 inhibition (in words)” value (CYP2C9) was “dose-dependent inhibition”, the IC50 (Sup-T1 cells; SUP-T1, read-out: Viability IC50) was 82 ± 116 µM and the maximal growth inhibition (Sup-T1 cells; Sup-T1 cells, up to 100 μM) was at most 40%.

For `COc1cc(/C=C/C(=O)COC(=O)/C=C/c2ccc(O)c(OC)c2)ccc1O` [Calebin-A, calebin-A], the “CYP1A2 inhibition (in words)” value (CYP1A2) was “did not show a consistent dose-response inhibition”, the “COX-2/COX-1 IC50 ratio” value (COX-2) was “around 1” and the IC50 (COX-2; mean ± SD, read-out: COX-2 IC50) was 784 ± 2200 µM. The “change in TNF-α concentration (in words)” value [1] was “no dose-response change”, the IC50 (PCAF; mean ± SD) was 200 ± 31 µM and the “fold less potent than curcumin, PCAF inhibition” value (PCAF; ratio of PCAF IC50) was 6 fold. For the same compound, the “CYP3A4 inhibition (in words)” value (CYP3A4) was “dose-dependent inhibition”, the “CYP2C9 inhibition (in words)” value (CYP2C9) was “dose-dependent inhibition” and the IC50 (Sup-T1 cells; Sup-T1 growth inhibition, MTS, mean ± SD, read-out: Viability IC50) was 26.2 ± 17 µM.
